Earlier results on 2 compounds are cited in PMC2693004 (Bioorganic & medicinal chemistry letters, 2009).

This data set has as its target T1, recombinant human MAO-A (Homo sapiens, UniProt P21397).
T1 sequence (P21397 1-527): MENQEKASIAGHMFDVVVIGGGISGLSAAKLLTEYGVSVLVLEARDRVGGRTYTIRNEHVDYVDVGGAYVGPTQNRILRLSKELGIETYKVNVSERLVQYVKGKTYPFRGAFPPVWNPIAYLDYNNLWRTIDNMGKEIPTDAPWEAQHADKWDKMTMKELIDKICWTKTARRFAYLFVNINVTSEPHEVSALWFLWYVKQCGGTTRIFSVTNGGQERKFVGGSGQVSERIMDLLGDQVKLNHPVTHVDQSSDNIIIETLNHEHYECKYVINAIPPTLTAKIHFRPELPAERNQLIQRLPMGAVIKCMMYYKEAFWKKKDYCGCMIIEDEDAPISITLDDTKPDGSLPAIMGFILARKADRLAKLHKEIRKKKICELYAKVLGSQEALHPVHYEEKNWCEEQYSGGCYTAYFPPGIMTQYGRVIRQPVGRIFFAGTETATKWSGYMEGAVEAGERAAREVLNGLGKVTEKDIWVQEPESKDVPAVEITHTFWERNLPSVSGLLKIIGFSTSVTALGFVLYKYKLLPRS

“Also recorded” adds a separate entry of the source.

Take `Cn1c(=O)c2c(nc(/C=C/c3cccc(Cl)c3)n2C)n(C)c1=O` [CSC, (E)-8-(3-chlorostyryl)caffeine]: the “binding to MAO-A” value is reported as “does not bind; also recorded: do not to bind”.

With `C(=CCc1ccccc1)Cc1ccccc1` [1,4-diphenyl-2-butene], the “binding to MAO-A” value is listed as “do not to bind”.
